The text below walks through data of paper PMC10281575, “PfCRT mutations conferring piperaquine resistance in falciparum malaria shape the kinetics of quinoline drug binding and transport” (PLOS Pathogens, 2023).

The target in this experiment is T1, PfCRT^Dd2_H97Y (Plasmodium falciparum, UniProt Q8IBZ9, A220S/H97Y/I356T/K76T/M74I/N326S/N75E/Q271E/R371I).
T1 construct: expressed in transfected cells; host or cells: Xenopus laevis oocytes injected with in vitro transcribed RNA (pSP64T)
T1 sequence (Q8IBZ9 1-424 M74I/N75E/K76T/H97Y/A220S/Q271E/N326S/I356T/R371I): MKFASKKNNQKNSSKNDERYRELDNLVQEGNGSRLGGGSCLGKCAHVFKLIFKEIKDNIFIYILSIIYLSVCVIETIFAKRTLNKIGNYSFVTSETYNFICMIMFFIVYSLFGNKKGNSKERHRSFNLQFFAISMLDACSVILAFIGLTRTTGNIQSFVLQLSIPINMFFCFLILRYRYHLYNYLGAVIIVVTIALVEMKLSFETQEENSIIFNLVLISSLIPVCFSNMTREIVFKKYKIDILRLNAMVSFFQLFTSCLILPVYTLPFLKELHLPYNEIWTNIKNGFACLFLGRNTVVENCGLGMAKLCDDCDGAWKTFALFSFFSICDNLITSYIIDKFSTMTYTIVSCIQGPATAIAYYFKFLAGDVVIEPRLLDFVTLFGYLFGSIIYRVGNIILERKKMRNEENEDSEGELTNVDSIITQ
Put plainly: Verapamil inhibition of PfCRT-mediated CQ and PPQ transport in oocytes, PfCRT^Dd2_H97Y. Particulars: individual replicates (S3 Fig). In kind it is cell-based. The method, then:
In all cases, the PfCRT-mediated CQ and PPQ transport was inhibited in the presence of 100 μM verapamil (S3 Fig).
Drug transport assays were performed as previously described. Briefly, measurements of radiolabeled drug uptake were made over 1 h, unless otherwise specified. […] Where specified, one or more unlabeled drugs were also present at the indicated concentrations. The direction of drug transport in the assays is from the extracellular medium (pH 6) into the oocyte cytosol (pH 7.2), which corresponds to the efflux of CQ or PPQ from the acidic digestive vacuole (pH 5.2) into the parasite cytosol (pH 7.2). The uptake assays were terminated by removing the oocytes from the reaction medium and washing them three times with 2 mL of ice-cold ND96 buffer. Each oocyte was transferred to a separate scintillation vial and lysed by the addition of 200 μL of a 5% SDS solution. The radioactivity in the sample was measured using a liquid scintillation analyser Tri-Carb 4910 TR (PerkinElmer). Water-injected oocytes were analyzed in parallel as a negative control. The buffer from each condition was measured in duplicate in parallel to each experiment to transform counts per minute into pmol of drug. Drug uptake attributable to PfCRT was determined by subtracting the background uptake from water-injected oocytes from that of PfCRT-expressing oocytes. In all cases, at least three independent experiments were performed on oocytes from different frogs, and for each condition in an experiment, measurements were made from 10 oocytes per treatment.
Supplementary file ppat.1011436.s006.tif: S3 Fig Verapamil inhibits PfCRT-mediated transport of CQ and PPQ. […] Left panels, data is shown as individual biological replicates (coloured symbols) overlaid onto bars representing the Mean ± S.E.M. (error bars). A one-tailed Student’s t-test was performed between untreated (no VP) and treated (+ 100 μM VP) samples, and the obtained p values are shown. Right panels, the uptake in VP-treated samples was divided by the uptake in their corresponding untreated pairs and subtracted from 100% to get the percentage of uptake inhibition mediated by the presence of 100 μM verapamil in the extracellular medium. Error bars are S.E. (TIF) Click here for additional data file.

Each structure is given as a SMILES string. Several values for one entry are separate records, joined by “and”; a condition that tells them apart may be missing. Equal values may be shown once.

`CCN(CC)CCCC(C)Nc1ccnc2cc(Cl)ccc12` (stereo not drawn) [CQ, chloroquine]: the “PfCRTDd2_H97Y-mediated CQ transport” value (50 µM CQ + 100 µM VP) was 2.480 pmol oocyte-1 h-1 and 0.550 pmol oocyte-1 h-1 and 3.310 pmol oocyte-1 h-1 and 4.210 pmol oocyte-1 h-1; the “PfCRTDd2_H97Y-mediated CQ transport” value (50 µM CQ) is 8.240 pmol oocyte-1 h-1 and 3.560 pmol oocyte-1 h-1 and 5.410 pmol oocyte-1 h-1 and 4.920 pmol oocyte-1 h-1.

Take `Clc1ccc2c(N3CCN(CCCN4CCN(c5ccnc6cc(Cl)ccc56)CC4)CC3)ccnc2c1` [PPQ, piperaquine]: where the note is “50 µM PPQ + 100 µM VP”, the “PfCRTDd2_H97Y-mediated PPQ transport” value is 18.33 pmol oocyte-1 h-1 and 31.33 pmol oocyte-1 h-1 and 27.94 pmol oocyte-1 h-1 and 23.86 pmol oocyte-1 h-1.
